For 15 compounds, dTm results are on record in paper PMC12136037, “Type II kinase inhibitors that target Parkinson’s disease–associated LRRK2” (Science Advances, 2025).

What all share (assay): DSF 100 kinase selectivity screen;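 note: compound tested at 20 µM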
What all share (assay type): binding

Test [1] has as its target T1, ~100 representative kinases (Homo sapiens, UniProt O15264).
T1 construct: Recombinant protein kinase domains with a concentration of 2 μM
T1 sequence (O15264 1-365): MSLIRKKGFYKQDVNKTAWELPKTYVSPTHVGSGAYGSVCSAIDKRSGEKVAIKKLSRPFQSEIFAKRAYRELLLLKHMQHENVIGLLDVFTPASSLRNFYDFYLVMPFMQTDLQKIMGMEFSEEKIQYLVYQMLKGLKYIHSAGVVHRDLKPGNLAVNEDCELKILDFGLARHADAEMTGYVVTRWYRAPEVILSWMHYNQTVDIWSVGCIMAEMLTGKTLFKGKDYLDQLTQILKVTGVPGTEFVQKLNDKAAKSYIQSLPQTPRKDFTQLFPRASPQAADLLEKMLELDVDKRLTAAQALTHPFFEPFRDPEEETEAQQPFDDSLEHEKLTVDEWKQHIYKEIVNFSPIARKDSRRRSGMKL
As to conditions: protein MAPK13; average of three replicates. In short, it runs like this: (§1)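 Each kinase domain, at 2 μM, is mixed with 20 μM test compound and SYPRO Orange in Hepes (20 mM, pH 7.5) with 500 mM NaCl. Temperature is then raised at 3°C/min and fluorescence-monitored unfolding yields the melting temperature change, ΔTm in degrees Celsius.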

Test [2] deals with T2, ~100 representative kinases (Homo sapiens, UniProt P21675).
T2 construct: Recombinant protein kinase domains with a concentration of 2 μM
T2 sequence (P21675 whole entry, the tested form may be a part): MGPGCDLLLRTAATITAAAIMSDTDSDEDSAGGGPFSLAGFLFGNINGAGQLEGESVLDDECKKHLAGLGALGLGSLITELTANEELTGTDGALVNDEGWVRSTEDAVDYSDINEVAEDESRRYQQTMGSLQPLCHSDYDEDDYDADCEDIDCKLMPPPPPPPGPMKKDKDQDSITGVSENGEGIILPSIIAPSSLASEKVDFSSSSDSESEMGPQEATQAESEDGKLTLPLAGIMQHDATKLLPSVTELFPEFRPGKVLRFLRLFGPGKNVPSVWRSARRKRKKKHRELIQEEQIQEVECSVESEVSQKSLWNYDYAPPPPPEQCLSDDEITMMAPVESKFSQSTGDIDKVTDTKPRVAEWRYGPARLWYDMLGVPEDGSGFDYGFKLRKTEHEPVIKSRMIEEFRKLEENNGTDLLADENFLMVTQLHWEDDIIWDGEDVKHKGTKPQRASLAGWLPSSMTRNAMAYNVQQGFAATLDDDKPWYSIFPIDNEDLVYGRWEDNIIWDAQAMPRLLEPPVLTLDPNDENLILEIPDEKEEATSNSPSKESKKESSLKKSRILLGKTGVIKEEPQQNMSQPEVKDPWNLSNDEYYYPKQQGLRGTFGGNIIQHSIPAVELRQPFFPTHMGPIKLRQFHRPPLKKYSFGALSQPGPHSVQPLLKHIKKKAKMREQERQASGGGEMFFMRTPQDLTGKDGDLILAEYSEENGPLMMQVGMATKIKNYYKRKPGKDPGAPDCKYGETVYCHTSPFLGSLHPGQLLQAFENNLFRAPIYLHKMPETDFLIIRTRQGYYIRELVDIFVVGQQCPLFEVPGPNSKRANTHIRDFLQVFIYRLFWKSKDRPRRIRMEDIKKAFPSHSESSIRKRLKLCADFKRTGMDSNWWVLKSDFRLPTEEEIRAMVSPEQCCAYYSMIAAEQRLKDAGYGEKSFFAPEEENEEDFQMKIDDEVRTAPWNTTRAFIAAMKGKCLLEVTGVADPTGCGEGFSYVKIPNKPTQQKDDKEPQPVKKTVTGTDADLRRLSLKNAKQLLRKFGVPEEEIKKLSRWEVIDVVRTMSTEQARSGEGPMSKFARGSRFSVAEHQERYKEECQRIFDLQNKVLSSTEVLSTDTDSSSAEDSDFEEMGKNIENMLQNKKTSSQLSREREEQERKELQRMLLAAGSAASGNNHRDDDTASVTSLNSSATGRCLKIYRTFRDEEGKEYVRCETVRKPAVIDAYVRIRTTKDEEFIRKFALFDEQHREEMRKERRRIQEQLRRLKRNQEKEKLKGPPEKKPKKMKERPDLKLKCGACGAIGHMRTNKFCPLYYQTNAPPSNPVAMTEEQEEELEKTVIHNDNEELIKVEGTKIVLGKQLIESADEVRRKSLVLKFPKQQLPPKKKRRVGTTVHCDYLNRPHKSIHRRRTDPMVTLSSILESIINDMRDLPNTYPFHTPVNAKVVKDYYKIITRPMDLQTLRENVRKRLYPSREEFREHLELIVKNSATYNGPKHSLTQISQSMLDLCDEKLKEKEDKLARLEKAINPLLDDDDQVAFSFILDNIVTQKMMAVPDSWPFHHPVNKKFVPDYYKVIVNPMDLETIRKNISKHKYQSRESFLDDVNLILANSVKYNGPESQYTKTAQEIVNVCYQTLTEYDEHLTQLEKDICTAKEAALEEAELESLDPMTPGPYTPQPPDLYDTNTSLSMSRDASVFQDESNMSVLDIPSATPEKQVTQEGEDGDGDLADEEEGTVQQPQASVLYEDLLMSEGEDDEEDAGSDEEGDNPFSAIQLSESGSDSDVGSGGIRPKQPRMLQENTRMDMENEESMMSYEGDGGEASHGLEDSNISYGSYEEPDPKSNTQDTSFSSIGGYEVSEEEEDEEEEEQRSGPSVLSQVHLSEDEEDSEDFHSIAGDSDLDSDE
To be noted: Protein TAF1; DSF; average of three replicates. The method in brief:
as §1

For test [3], the target named is T3, ~100 representative kinases (Homo sapiens, UniProt P49761).
T3 construct: Recombinant protein kinase domains with a concentration of 2 μM
T3 sequence (P49761 whole entry, the tested form may be a part): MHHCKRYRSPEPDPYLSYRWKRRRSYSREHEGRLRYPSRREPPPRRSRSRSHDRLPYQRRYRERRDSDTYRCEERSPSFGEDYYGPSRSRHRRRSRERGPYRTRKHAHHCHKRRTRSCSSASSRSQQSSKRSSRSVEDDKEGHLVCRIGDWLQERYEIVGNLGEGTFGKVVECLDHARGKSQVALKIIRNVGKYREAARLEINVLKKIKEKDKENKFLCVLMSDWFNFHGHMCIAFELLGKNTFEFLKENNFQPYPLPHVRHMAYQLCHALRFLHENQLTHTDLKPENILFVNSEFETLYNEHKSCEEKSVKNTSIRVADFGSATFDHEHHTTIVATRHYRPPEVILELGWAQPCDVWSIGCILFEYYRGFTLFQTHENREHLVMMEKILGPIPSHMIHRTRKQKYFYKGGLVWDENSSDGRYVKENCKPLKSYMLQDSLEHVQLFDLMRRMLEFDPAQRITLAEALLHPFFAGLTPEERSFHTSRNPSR
As to conditions: Protein CLK3; average of three replicates. The method in brief:
as §1

The target in test [4] is T4, ~100 representative kinases (Homo sapiens, UniProt P52564).
T4 construct: Recombinant protein kinase domains with a concentration of 2 μM
T4 sequence (P52564 1-334): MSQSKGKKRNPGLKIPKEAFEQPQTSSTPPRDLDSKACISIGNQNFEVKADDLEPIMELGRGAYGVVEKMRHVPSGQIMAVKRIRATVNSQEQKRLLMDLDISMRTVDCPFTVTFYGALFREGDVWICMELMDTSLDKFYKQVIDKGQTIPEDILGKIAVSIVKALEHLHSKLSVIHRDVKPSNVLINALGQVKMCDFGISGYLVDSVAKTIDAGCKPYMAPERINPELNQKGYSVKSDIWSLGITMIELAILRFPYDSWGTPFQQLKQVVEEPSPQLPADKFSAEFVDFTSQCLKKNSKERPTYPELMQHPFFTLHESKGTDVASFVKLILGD
To be noted: protein MAP2K6; average of three replicates. The method in brief:
as §1

Test [5] has as its target T5, ~100 representative kinases (Homo sapiens, UniProt Q13873).
T5 construct: Recombinant protein kinase domains with a concentration of 2 μM
T5 sequence (Q13873 27-1038): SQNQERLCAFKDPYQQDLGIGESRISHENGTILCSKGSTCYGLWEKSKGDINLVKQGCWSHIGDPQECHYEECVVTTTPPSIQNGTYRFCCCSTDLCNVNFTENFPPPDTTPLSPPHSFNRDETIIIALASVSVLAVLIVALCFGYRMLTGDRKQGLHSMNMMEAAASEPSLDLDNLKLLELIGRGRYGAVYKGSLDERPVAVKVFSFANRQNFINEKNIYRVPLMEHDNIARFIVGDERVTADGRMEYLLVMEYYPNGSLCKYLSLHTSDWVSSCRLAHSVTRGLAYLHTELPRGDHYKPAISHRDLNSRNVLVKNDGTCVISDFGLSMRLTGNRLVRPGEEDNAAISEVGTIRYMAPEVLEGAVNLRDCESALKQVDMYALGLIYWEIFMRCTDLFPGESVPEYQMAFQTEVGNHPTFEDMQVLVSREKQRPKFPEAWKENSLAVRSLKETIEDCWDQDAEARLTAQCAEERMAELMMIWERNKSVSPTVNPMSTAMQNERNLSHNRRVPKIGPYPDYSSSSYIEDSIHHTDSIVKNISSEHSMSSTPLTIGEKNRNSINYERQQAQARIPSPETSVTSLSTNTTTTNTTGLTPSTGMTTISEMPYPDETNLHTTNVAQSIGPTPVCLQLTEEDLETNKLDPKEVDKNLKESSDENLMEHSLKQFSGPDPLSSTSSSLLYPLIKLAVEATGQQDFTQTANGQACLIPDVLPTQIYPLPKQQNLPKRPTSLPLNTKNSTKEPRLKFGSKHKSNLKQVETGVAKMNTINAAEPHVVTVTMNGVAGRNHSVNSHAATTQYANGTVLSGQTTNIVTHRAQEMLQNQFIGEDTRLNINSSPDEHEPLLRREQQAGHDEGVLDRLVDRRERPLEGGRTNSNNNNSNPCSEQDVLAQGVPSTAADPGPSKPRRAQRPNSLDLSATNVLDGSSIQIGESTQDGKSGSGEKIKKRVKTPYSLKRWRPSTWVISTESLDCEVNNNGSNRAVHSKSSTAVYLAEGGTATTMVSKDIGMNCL
As to conditions: Protein BMPR2; average of three replicates. The method in brief:
as §1

In test [6] the target is T6, ~100 representative kinases (Homo sapiens, UniProt Q96L34).
T6 construct: Recombinant protein kinase domains with a concentration of 2 μM
T6 sequence (Q96L34 1-752): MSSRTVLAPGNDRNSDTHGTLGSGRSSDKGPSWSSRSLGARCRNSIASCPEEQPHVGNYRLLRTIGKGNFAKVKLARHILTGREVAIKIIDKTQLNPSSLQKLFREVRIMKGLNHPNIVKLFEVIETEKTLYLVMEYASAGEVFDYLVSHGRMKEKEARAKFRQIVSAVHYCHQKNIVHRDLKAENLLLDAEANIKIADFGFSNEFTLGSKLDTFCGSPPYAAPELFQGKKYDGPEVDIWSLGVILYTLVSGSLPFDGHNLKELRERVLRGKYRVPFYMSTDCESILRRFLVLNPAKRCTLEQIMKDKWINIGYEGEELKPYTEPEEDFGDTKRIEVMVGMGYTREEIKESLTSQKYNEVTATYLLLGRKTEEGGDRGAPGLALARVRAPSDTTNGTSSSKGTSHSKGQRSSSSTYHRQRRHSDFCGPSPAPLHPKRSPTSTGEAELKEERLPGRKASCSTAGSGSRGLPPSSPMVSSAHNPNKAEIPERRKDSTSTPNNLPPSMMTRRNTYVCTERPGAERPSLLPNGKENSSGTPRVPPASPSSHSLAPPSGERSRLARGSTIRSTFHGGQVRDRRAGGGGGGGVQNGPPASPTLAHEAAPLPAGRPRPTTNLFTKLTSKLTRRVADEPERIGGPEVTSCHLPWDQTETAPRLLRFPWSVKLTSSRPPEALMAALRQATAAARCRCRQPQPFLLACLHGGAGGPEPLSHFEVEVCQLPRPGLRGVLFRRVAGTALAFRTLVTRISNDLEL
To be noted: protein MARK4; average of three replicates. In short, it runs like this: as §1

Structures are written as SMILES.

In the case of `O=C(Nc1cccc(-c2c[nH]c3ncnc(N4CCOCC4)c23)c1)C1(C(=O)Nc2cc(Br)c(F)cc2F)CC1` [Compound 25], the dTm in test [1] was 1.39 K; in test [2] it was 1.63 K; in test [3], 2.08 K; in test [4] it was 3.34 K; in test [5], 0.20 K; in test [6], -6.37 K.

Consider `CC(C)(C)c1cc(NC(=O)Nc2cccc(-c3c[nH]c4ncnc(N5CCOCC5)c34)c2)n(-c2ccc3ncccc3c2)n1` [Compound 28], for which the dTm in test [1] stood at 16.99 K; in test [2] it was 1.17 K; in test [3] it was 16.34 K; in test [4], 1.76 K; in test [5], 0.69 K; in test [6], 4.38 K.

Consider `COc1cc(C(=O)N2CCOCC2)c(F)cc1Nc1nc(N(C)C)c2c(Cl)c[nH]c2n1` [Compound 36], for which the dTm in test [1] is 0.85 K; in test [2], 1.23 K; in test [3], 2.75 K; in test [4], 9.56 K; in test [5], 0.63 K; in test [6], -0.63 K.

For `COc1cc2c(Oc3ccc(NC(=O)C4(C(=O)Nc5ccc(F)cc5)CC4)cc3F)ccnc2cc1OCCCN1CCOCC1` [Foretinib, reference compound], the dTm was found to be 9.64 K in test [1]; 0.54 K in test [2]; 3.35 K in test [3]; 2.25 K in test [4]; 0.59 K in test [5]; 1.64 K in test [6].

As to `Cc1ccc(-n2nc(C(C)(C)C)cc2NC(=O)Nc2cccc(-c3c[nH]c4nc(Cl)nc(N5CCOCC5)c34)c2)cc1` [Compound 30], the dTm in test [1] is reported as 9.71 K; in test [2], -4.89 K; in test [3], 3.71 K; in test [4], 0.45 K; in test [5], 0.19 K; in test [6] it was -1.19 K.

Consider `CC(C)(C)c1cccc(NC(=O)C2(C(=O)Nc3cccc(-c4c[nH]c5ncnc(N6CCOCC6)c45)c3)CC2)c1` [Compound 22], for which the dTm came to 6.63 K in test [1]; 1.24 K in test [2]; 4.17 K in test [3]; 1.77 K in test [4]; 0.10 K in test [5]; 4.58 K in test [6].

Regarding `COc1ccc(NC(=O)C2(C(=O)Nc3cccc(-c4c[nH]c5ncnc(N6CCOCC6)c45)c3)CC2)cc1` [Compound 16], the dTm in test [1] is given as 5.41 K; in test [2] it was 0.37 K; in test [3], 0.51 K; in test [4] it was 0.82 K; in test [5], 0.48 K; in test [6], 2.27 K.

Consider `CC(=O)N1CCN(c2nc(Cl)nc3[nH]cc(-c4cccc(NC(=O)Nc5cc(C(C)(C)C)nn5-c5ccc(C)cc5)c4)c23)CC1` [Compound 31], for which the dTm in test [1] is reported as 11.86 K; in test [2], -2.02 K; in test [3], 3.34 K; in test [4], 0.27 K; in test [5], 0.38 K; in test [6] it was -0.53 K.

Take `Cc1cc(NC(=O)C2(C(=O)Nc3ccc(F)cc3)CC2)cc(-c2c[nH]c3ncnc(N4CCOCC4)c23)c1` [Compound 6]: the dTm was 7.75 K in test [1]; 0.30 K in test [2]; 0.98 K in test [3]; 1.56 K in test [4]; 0.52 K in test [5]; -6.12 K in test [6].

With `O=C(Nc1cccc(-c2c[nH]c3ncnc(N4CCOCC4)c23)c1)C1(C(=O)Nc2ccc(F)c(Br)c2F)CC1` [Compound 26], the dTm is on record as 4.55 K in test [1]; -1.20 K in test [2]; 3.24 K in test [3]; 2.03 K in test [4]; 0.05 K in test [5]; 1.86 K in test [6].

Consider `O=C(Nc1cccc(-c2c[nH]c3ncnc(N4CCOCC4)c23)c1)C1(C(=O)Nc2cccc3c2CCC3)CC1` [Compound 11], for which the dTm is recorded as 6.18 K in test [1]; -5.02 K in test [2]; 1.62 K in test [3]; 2.82 K in test [4]; 0.44 K in test [5]; 0.00 K in test [6].

Turning to `Cn1cc(-c2c[nH]c3ncnc(N4CCOCC4)c23)cc1C#N` [PFE-360], the dTm in test [1] is listed as 0.70 K; in test [2] it was -0.43 K; in test [3], 5.46 K; in test [4], 1.09 K; in test [5], 2.89 K; in test [6], 3.49 K.

Consider `C[C@@H]1CN(c2cc(-c3n[nH]c4ccc(OC5(C)CC5)cc34)ncn2)C[C@H](C)O1` [MLi2], for which the dTm is 0.32 K in test [1]; -0.34 K in test [2]; 3.51 K in test [3]; 0.18 K in test [4]; 0.0116 K in test [5]; -0.55 K in test [6].

With `O=C(Nc1ccc(F)cc1)C1(C(=O)Nc2cccc(-c3c[nH]c4ncnc(N5CCOCC5)c34)c2)CC1` [Compound 2], the dTm in test [1] was found to be 9.94 K; in test [2], 0.23 K; in test [3], 3.15 K; in test [4], 2.20 K; in test [5], 0.92 K; in test [6], 3.91 K.

Turning to `CCSc1nc(NC)c2c(-c3cccc(NC(=O)Nc4cc(C(C)(C)C)nn4-c4ccc(C)cc4)c3)c[nH]c2n1` [Compound 32], the dTm was 9.18 K in test [1]; -5.70 K in test [2]; 0.50 K in test [3]; 0.13 K in test [4]; 0.45 K in test [5]; 0.25 K in test [6].
